Molecules are shown by their SMILES.

For data set [1] the following is noted: versus parent genistein; cited from earlier work.
The conditions of data set [2]: versus parent genistein; cited from earlier work. The source holds these as a separate data set.
A further data set relates to ovariectomized rats. The conditions noted are these: comparable to estradiol and raloxifene, surpassed genistein; cited from earlier work.
The subject of another data set is ErPPK. Put plainly: Effect of polyphenol derivatives on ErPPK activity. In kind it is biochemical, unclassified Erysipelotrichaceae bacterium. The conditions noted are these: 0.25 mM. From the text:
FIG. 4 illustrates the effect of polyphenol derivatives on ErPPK. Data are mean SD (n=3), with significance indicated by p<0.05 using t-test. n.s., non-significance.
Considering the known inhibitory effect of aromatic phosphonates on PPK2 enzymes, we investigated the impact of polyphenols and polyphenol phosphates on ErPPK activity to evaluate their integration into a one-pot bi-enzymatic system. LUT was selected as the polyphenol target, based on its incomplete conversion in microbial systems due to its toxic nature.

For the molecule `O=c1c(-c2ccc(O)cc2)coc2cc(OP(=O)(O)O)cc(O)c12` [Genistein 7-O-phosphate], the solubility result in data set [1] was “improved”. Also, in data set [2], the oral bioavailability result was “improved”. In the data set with ovariectomized rats, the osteoprotective effects entry is “improved”.

`O=c1cc(-c2ccc(O)c(O)c2)oc2cc(O)cc(O)c12` [LUT, luteolin]: the “inhibitory effect on ErPPK activity” value with ErPPK is recorded as “no significant inhibitory effect”.

These data come from patent US20240318212A1, “PHOSPHORYLATION OF PHENOLIC PHYTOCHEMICALS BY TWO ENZYMES COUPLED SYSTEM” (National Taiwan University, priority 2023, published 2024).
